Assay results reported in ChEMBL document CHEMBL1201862, “PubChem BioAssay data set” (2004).
Activity calls are given as the source filed them. For most assays here, no stated cut-off is given here; in the data, actives have a measured IC50 and inactives only a lower limit.

How the values were obtained:
[1] = test system: Streptococcus sp. 'group A'; test: Streptococcus pyogenes SK(-)GAS viability under kanamycin – luminescence, BacTiterGlo, confirmation, counter-screen for streptokinase expression inhibitor project, dose response (AID 1900); type: functional, organism-based
[2] = target: T1, Sentrin-specific protease 8 (Homo sapiens, UniProt Q96LD8); type: functional;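 further: luminescence read-out of SENP8 inhibition, dose-response confirmation following an ultra-high-throughput screen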
T1 sequence (Q96LD8 whole entry): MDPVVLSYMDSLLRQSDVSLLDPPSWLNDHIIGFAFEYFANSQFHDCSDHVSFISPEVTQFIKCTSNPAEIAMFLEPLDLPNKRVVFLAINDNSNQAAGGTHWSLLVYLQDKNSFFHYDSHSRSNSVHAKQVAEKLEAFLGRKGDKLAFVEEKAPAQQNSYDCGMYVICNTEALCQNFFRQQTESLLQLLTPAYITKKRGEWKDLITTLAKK

[3] = target: T2, Apoptotic protease-activating factor 1 (Homo sapiens, UniProt O14727); type: functional
T2 sequence (O14727 whole entry): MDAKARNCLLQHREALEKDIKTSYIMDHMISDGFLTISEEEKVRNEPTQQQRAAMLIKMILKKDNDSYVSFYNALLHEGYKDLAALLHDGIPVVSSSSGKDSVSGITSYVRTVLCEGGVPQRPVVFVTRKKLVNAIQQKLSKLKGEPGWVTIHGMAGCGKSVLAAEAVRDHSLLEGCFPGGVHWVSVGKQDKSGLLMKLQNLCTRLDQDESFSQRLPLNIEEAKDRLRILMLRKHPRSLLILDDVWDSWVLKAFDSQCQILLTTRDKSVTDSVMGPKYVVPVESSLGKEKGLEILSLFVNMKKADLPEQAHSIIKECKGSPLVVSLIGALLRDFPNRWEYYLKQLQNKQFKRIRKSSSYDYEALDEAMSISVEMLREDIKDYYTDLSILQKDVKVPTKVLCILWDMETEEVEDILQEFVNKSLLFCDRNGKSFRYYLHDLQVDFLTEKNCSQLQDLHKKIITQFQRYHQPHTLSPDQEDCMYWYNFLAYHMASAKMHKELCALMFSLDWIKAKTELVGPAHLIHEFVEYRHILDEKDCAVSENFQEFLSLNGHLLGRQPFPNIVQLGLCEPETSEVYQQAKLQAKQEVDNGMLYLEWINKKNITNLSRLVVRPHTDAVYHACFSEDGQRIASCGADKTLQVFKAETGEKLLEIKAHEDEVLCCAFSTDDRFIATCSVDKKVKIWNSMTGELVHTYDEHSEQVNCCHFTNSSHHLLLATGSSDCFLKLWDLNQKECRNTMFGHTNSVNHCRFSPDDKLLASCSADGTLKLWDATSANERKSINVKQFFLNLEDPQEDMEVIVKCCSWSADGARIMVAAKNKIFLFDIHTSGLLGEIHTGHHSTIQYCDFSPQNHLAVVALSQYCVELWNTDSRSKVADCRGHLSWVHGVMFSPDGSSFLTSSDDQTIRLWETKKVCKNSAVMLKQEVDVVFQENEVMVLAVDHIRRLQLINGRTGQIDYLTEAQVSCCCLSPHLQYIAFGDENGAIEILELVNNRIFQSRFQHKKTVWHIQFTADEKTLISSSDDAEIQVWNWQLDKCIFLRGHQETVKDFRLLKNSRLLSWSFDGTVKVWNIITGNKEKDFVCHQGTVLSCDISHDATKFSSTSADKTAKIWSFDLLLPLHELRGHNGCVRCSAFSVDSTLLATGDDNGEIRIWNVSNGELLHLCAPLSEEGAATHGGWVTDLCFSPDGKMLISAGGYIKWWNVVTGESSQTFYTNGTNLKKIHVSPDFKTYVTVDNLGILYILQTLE

[4] = target: T3, Sentrin-specific protease 7 (Homo sapiens, UniProt Q9BQF6); type: functional;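 further: Luminescence-based dose-response confirmation of ultra-high-throughput screening hits, measuring inhibition of SENP7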
T3 sequence (Q9BQF6 whole entry): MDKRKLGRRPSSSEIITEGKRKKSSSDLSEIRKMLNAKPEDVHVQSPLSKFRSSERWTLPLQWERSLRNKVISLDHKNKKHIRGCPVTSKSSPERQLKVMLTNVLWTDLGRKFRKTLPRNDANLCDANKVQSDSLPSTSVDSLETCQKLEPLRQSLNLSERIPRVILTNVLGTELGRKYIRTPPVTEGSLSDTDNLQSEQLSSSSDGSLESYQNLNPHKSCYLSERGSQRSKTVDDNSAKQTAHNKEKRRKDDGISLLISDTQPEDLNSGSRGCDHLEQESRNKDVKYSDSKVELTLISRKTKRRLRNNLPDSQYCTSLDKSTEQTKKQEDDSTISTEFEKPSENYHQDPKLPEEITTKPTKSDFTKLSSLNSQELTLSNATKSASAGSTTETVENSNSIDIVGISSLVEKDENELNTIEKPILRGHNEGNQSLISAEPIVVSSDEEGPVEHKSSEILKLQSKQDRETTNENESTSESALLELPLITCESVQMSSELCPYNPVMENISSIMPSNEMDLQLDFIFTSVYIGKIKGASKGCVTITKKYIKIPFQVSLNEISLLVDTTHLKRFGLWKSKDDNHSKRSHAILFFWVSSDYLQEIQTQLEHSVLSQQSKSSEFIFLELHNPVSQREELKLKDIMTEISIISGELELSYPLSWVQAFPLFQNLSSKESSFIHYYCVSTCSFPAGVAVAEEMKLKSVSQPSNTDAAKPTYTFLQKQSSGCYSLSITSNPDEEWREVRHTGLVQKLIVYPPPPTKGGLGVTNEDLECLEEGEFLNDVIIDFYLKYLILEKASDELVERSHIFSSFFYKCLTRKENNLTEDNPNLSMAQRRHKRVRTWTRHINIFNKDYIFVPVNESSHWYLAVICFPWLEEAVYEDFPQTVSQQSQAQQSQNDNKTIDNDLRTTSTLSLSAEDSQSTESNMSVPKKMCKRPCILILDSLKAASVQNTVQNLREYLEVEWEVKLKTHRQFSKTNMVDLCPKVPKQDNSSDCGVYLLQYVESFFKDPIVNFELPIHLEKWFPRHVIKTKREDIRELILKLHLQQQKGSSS

Row | SMILES | EC50 [1] | IC50 [2] | IC50 [3] | IC50 [4]
1 | O=C(Nc1ccccc1)c1nnsc1[S+]([O-])c1ccc(Cl)cc1 (stereo not drawn) | 2.11 µM (active) |  |  | 
2 | CC1OC(Nc2cccc3ccccc23)C(O)C(O)C1O (stereo not drawn) |  | 6.06 µM (active) | 14.8 µM (active) | 7.53 µM (active)
3 | O=C1C=C(Nc2ccccc2)c2ccccc2C1=O | 1.77 µM (active) | 9.45 µM (active) | 2.23 µM (active) | 12.2 µM (active)
